Drawing on ChEMBL document CHEMBL3804786, “Novel 1,3-thiazolidin-4-one derivatives as promising anti-Candida agents endowed with anti-oxidant and chelating properties” (Eur J Med Chem, 2016), this text covers MIC for 12 compounds.

Converted amounts (≈) assume the structure as drawn. A value given as a limit tells only on which side of the number the result lay.

The subject of one test is Klebsiella oxytoca. Description: Antibacterial activity against Klebsiella oxytoca clinical isolate after 18 to 22 hrs by broth microdilution method. The format is functional.
The next test concerns Staphylococcus warneri. Description: Antibacterial activity against Staphylococcus warneri clinical isolate after 18 to 22 hrs by broth microdilution method. The format is functional. (Broth dilution looks for growth in wells or tubes with falling amounts of substance.)
For a further test, the system named is Escherichia coli. Description: Antibacterial activity against Escherichia coli after clinical isolate 18 to 22 hrs by broth microdilution method. The format is functional.
The next test has as its system Pichia kudriavzevii. Description: Antifungal activity against Candida krusei clinical isolate after 24 hrs by broth microdilution method. The format is functional.
Test [1] has as its system Streptococcus sp. (viridans group). Kind of test: Antibacterial activity against Streptococcus alpha-hemolyticus clinical isolate after 18 to 22 hrs by broth microdilution method.
A further test has as its system Enterococcus faecalis. Kind of test: Antibacterial activity against Streptococcus faecalis clinical isolate after 18 to 22 hrs by broth microdilution method. The format is functional.
The test system of the next test is Proteus mirabilis. Description: Antibacterial activity against Proteus mirabilis clinical isolate after 18 to 22 hrs by broth microdilution method. The format is functional.
A further test relates to Candida albicans. Kind of test: Antifungal activity against Candida albicans clinical isolate after 24 hrs by broth microdilution method. The format is functional.
The test system of a further test is Candida parapsilosis. Description: Antifungal activity against Candida parapsilosis clinical isolate after 24 hrs by broth microdilution method. The format is functional. The conditions noted are these: Lodderomyces parapsilosis.
A further test deals with Staphylococcus aureus. Description: Antibacterial activity against Staphylococcus aureus clinical isolate after 18 to 22 hrs by broth microdilution method. The format is functional.
A further test relates to Candida tropicalis. Kind of test: Antifungal activity against Candida tropicalis clinical isolate after 24 hrs by broth microdilution method. The format is functional.
For another test, the system named is Nakaseomyces glabratus. Description: Antifungal activity against Candida glabrata clinical isolate after 24 hrs by broth microdilution method. The format is functional.
The next test deals with Enterobacter sp. Description: Antibacterial activity against Enterobacter spp. clinical isolate after 18 to 22 hrs by broth microdilution method. The format is functional.
A further test concerns [Candida] sake. Kind of test: Antifungal activity against Candida sake clinical isolate after 24 hrs by broth microdilution method. The format is functional. As to conditions: Fermentozyma sake.

Regarding `CC(C)=N/N=C1\SCC(=O)N1Cc1ccccc1F`, the MIC with Klebsiella oxytoca was above 256 mg/L; in the test with Staphylococcus warneri, above 256 mg/L; against Escherichia coli, above 256 mg/L; against Pichia kudriavzevii, 8 mg/L (≈ 28.6 µM); in test [1] it was above 256 mg/L; against Enterococcus faecalis it was above 256 mg/L. Besides, the MIC is above 256 mg/L against Proteus mirabilis; 8 mg/L (≈ 28.6 µM) in the test on Candida albicans; 4 mg/L (≈ 14.3 µM) against Candida parapsilosis; above 256 mg/L with Staphylococcus aureus; 4 mg/L (≈ 14.3 µM) in the test with Candida tropicalis; 2 mg/L (≈ 7.16 µM) with Nakaseomyces glabratus. The figures for the MIC (in the test on Enterobacter sp.; in test [Candida] sake) were above 256 mg/L and 8 mg/L (≈ 28.6 µM), respectively.

For the compound `C/C(=N\N=C1/SCC(=O)N1Cc1ccccc1F)c1ccccn1`, the minimal inhibitory concentration (MIC) in the test with Klebsiella oxytoca was above 256 mg/L; in the test with Staphylococcus warneri it was above 256 mg/L; in the test with Escherichia coli, above 256 mg/L; against Pichia kudriavzevii, 4 mg/L (≈ 11.7 µM); in test [1], above 256 mg/L; against Enterococcus faecalis, above 256 mg/L. The MIC is above 256 mg/L in the test on Proteus mirabilis; 4 mg/L (≈ 11.7 µM) in the test on Candida albicans; 4 mg/L (≈ 11.7 µM) against Candida parapsilosis; above 256 mg/L against Staphylococcus aureus; 4 mg/L (≈ 11.7 µM) with Candida tropicalis; 8 mg/L (≈ 23.4 µM) against Nakaseomyces glabratus. The MIC in the test with Enterobacter sp. was above 256 mg/L; in test [Candida] sake, 8 mg/L (≈ 23.4 µM).

With `C/C(=N\N=C1/SCC(=O)N1Cc1cccc(F)c1)c1ccccn1`, the MIC against Klebsiella oxytoca is above 256 mg/L; in the test with Staphylococcus warneri it was above 256 mg/L; in the test on Escherichia coli, above 256 mg/L; against Pichia kudriavzevii, 8 mg/L (≈ 23.4 µM); in test [1], above 256 mg/L; against Enterococcus faecalis, above 256 mg/L. The MIC was above 256 mg/L with Proteus mirabilis; 2 mg/L (≈ 5.84 µM) in the test with Candida albicans; 2 mg/L (≈ 5.84 µM) in the test with Candida parapsilosis; above 256 mg/L against Staphylococcus aureus; 8 mg/L (≈ 23.4 µM) in the test on Candida tropicalis; 2 mg/L (≈ 5.84 µM) against Nakaseomyces glabratus. For the same compound, the MIC with Enterobacter sp. was above 256 mg/L; in test [Candida] sake it was 4 mg/L (≈ 11.7 µM).

For the compound `CC(C)=N/N=C1\SCC(=O)N1Cc1cccc(F)c1`, the MIC against Klebsiella oxytoca was above 256 mg/L; with Staphylococcus warneri it was above 256 mg/L; against Escherichia coli it was above 256 mg/L; against Pichia kudriavzevii, 4 mg/L (≈ 14.3 µM); in test [1] it was above 256 mg/L; in the test with Enterococcus faecalis, above 256 mg/L. The MIC against Proteus mirabilis was above 256 mg/L; against Candida albicans, 4 mg/L (≈ 14.3 µM); with Candida parapsilosis, 2 mg/L (≈ 7.16 µM); in the test on Staphylococcus aureus, above 256 mg/L; in the test on Candida tropicalis, 4 mg/L (≈ 14.3 µM); against Nakaseomyces glabratus it was 4 mg/L (≈ 14.3 µM). Further, the MIC in the test on Enterobacter sp. is above 256 mg/L; in test [Candida] sake, 8 mg/L (≈ 28.6 µM).

On to `O=C1CS/C(=N\N=C2CCCC2)N1Cc1cccc(F)c1`, for which the minimal inhibitory concentration (MIC) in the test with Klebsiella oxytoca is above 256 mg/L; with Staphylococcus warneri it was above 256 mg/L; with Escherichia coli it was above 256 mg/L; with Pichia kudriavzevii it was 2 mg/L (≈ 6.55 µM); in test [1] it was above 256 mg/L; against Enterococcus faecalis it was above 256 mg/L. Also, the MIC against Proteus mirabilis is above 256 mg/L; against Candida albicans, 4 mg/L (≈ 13.1 µM); against Candida parapsilosis, 4 mg/L (≈ 13.1 µM); against Staphylococcus aureus it was above 256 mg/L; in the test on Candida tropicalis, 16 mg/L (≈ 52.4 µM); against Nakaseomyces glabratus, 2 mg/L (≈ 6.55 µM). The MIC against Enterobacter sp. is above 256 mg/L; in [Candida] sake it was 8 mg/L (≈ 26.2 µM).

`CC(C)=N/N=C1\SCC(=O)N1Cc1ccc(F)cc1`: the MIC with Klebsiella oxytoca is above 256 mg/L; in the test with Staphylococcus warneri, above 256 mg/L; against Escherichia coli it was above 256 mg/L; against Pichia kudriavzevii, 16 mg/L (≈ 57.3 µM); in test [1], above 256 mg/L; in the test with Enterococcus faecalis, above 256 mg/L. In addition, the MIC was above 256 mg/L in the test with Proteus mirabilis; 8 mg/L (≈ 28.6 µM) against Candida albicans; 2 mg/L (≈ 7.16 µM) with Candida parapsilosis; above 256 mg/L in the test on Staphylococcus aureus; 16 mg/L (≈ 57.3 µM) in the test on Candida tropicalis; 4 mg/L (≈ 14.3 µM) in the test with Nakaseomyces glabratus. The figures for the minimum inhibitory concentration (MIC) (in the test with Enterobacter sp.; in test [Candida] sake) were above 256 mg/L and 8 mg/L (≈ 28.6 µM), respectively.

For `O=C1CS/C(=N\N=C2CCCC2)N1Cc1cccc([N+](=O)[O-])c1`, the MIC was above 256 mg/L with Klebsiella oxytoca; above 256 mg/L against Staphylococcus warneri; above 256 mg/L in the test with Escherichia coli; 8 mg/L (≈ 24.1 µM) with Pichia kudriavzevii; above 256 mg/L in test [1]; above 256 mg/L with Enterococcus faecalis. Also, the MIC against Proteus mirabilis is above 256 mg/L; with Candida albicans it was 4 mg/L (≈ 12 µM); in the test on Candida parapsilosis, 4 mg/L (≈ 12 µM); with Staphylococcus aureus, above 256 mg/L; in the test on Candida tropicalis it was 4 mg/L (≈ 12 µM); against Nakaseomyces glabratus it was 16 mg/L (≈ 48.1 µM). The MIC was above 256 mg/L against Enterobacter sp. and 2 mg/L (≈ 6.02 µM) in test [Candida] sake.

As to `C/C(=N\N=C1/SCC(=O)N1Cc1cccc([N+](=O)[O-])c1)c1ccccn1`, the MIC is above 256 mg/L against Klebsiella oxytoca; above 256 mg/L with Staphylococcus warneri; above 256 mg/L against Escherichia coli; 8 mg/L (≈ 21.7 µM) in the test with Pichia kudriavzevii; above 256 mg/L in [1]; above 256 mg/L in the test with Enterococcus faecalis. Besides, the MIC in the test on Proteus mirabilis is above 256 mg/L; against Candida albicans, 4 mg/L (≈ 10.8 µM); against Candida parapsilosis, 8 mg/L (≈ 21.7 µM); in the test with Staphylococcus aureus it was above 256 mg/L; against Candida tropicalis it was 8 mg/L (≈ 21.7 µM); in the test on Nakaseomyces glabratus it was 2 mg/L (≈ 5.41 µM). Moreover, the MIC in the test with Enterobacter sp. is above 256 mg/L; in test [Candida] sake it was 4 mg/L (≈ 10.8 µM).

On to `C/C(=N\N=C1/SCC(=O)N1Cc1cccc([N+](=O)[O-])c1)c1cccs1`, for which the MIC was above 256 mg/L in the test on Klebsiella oxytoca; above 256 mg/L with Staphylococcus warneri; above 256 mg/L in the test with Escherichia coli; 2 mg/L (≈ 5.34 µM) with Pichia kudriavzevii; above 256 mg/L in test [1]; above 256 mg/L against Enterococcus faecalis. Further, the MIC was above 256 mg/L in the test on Proteus mirabilis; 4 mg/L (≈ 10.7 µM) against Candida albicans; 8 mg/L (≈ 21.4 µM) in the test on Candida parapsilosis; above 256 mg/L against Staphylococcus aureus; 4 mg/L (≈ 10.7 µM) against Candida tropicalis; 2 mg/L (≈ 5.34 µM) in the test on Nakaseomyces glabratus. For the same compound, the MIC was above 256 mg/L with Enterobacter sp. and 4 mg/L (≈ 10.7 µM) in test [Candida] sake.

Regarding `C/C(=N/N=C1\SCC(=O)N1Cc1ccccc1[N+](=O)[O-])c1ccccn1`, the MIC against Klebsiella oxytoca was above 256 mg/L; against Staphylococcus warneri, above 256 mg/L; with Escherichia coli it was above 256 mg/L; in the test on Pichia kudriavzevii, 4 mg/L (≈ 10.8 µM); in test [1], above 256 mg/L; against Enterococcus faecalis it was above 256 mg/L. For the same compound, the MIC against Proteus mirabilis was above 256 mg/L; in the test with Candida albicans, 2 mg/L (≈ 5.41 µM); in the test on Candida parapsilosis, 16 mg/L (≈ 43.3 µM); in the test on Staphylococcus aureus it was above 256 mg/L; in the test with Candida tropicalis, 4 mg/L (≈ 10.8 µM); against Nakaseomyces glabratus, 2 mg/L (≈ 5.41 µM). Further, the MIC in the test on Enterobacter sp. was above 256 mg/L; in [Candida] sake, 2 mg/L (≈ 5.41 µM).

With `O=C1CS/C(=N\N=C2CCCC2)N1Cc1ccccc1[N+](=O)[O-]`, the MIC was above 256 mg/L in the test with Klebsiella oxytoca; above 256 mg/L against Staphylococcus warneri; above 256 mg/L against Escherichia coli; 4 mg/L (≈ 12 µM) against Pichia kudriavzevii; above 256 mg/L in [1]; above 256 mg/L in the test with Enterococcus faecalis. In addition, the MIC is above 256 mg/L against Proteus mirabilis; 4 mg/L (≈ 12 µM) with Candida albicans; 16 mg/L (≈ 48.1 µM) against Candida parapsilosis; above 256 mg/L with Staphylococcus aureus; 8 mg/L (≈ 24.1 µM) in the test with Candida tropicalis; 2 mg/L (≈ 6.02 µM) with Nakaseomyces glabratus. Further, the figures for the MIC (against Enterobacter sp.; in test [Candida] sake) were above 256 mg/L and 4 mg/L (≈ 12 µM), respectively.

For `CC(C)=N/N=C1\SCC(=O)N1Cc1ccccc1[N+](=O)[O-]`, the MIC against Klebsiella oxytoca was above 256 mg/L; with Staphylococcus warneri, above 256 mg/L; against Escherichia coli it was above 256 mg/L; with Pichia kudriavzevii, 2 mg/L (≈ 6.53 µM); in test [1], above 256 mg/L; against Enterococcus faecalis it was above 256 mg/L. In addition, the MIC was above 256 mg/L with Proteus mirabilis; 2 mg/L (≈ 6.53 µM) with Candida albicans; 16 mg/L (≈ 52.2 µM) in the test on Candida parapsilosis; above 256 mg/L with Staphylococcus aureus; 8 mg/L (≈ 26.1 µM) with Candida tropicalis; 4 mg/L (≈ 13.1 µM) against Nakaseomyces glabratus. For the same compound, the figures for the MIC (in the test on Enterobacter sp.; in test [Candida] sake) were above 256 mg/L and 4 mg/L (≈ 13.1 µM), respectively.

Usually MIC stands for the least concentration at which growth counts as inhibited. A low value points to a more susceptible organism.
